Experimental data taken from ChEMBL document CHEMBL1149893, “Recent developments of carbonic anhydrase inhibitors as potential anticancer drugs” (J Med Chem, 2008).

Target: Carbonic anhydrase 9 (Homo sapiens, UniProt Q16790)

Row | Ki [nM] | Structure (SMILES)
1 | 76 | CC(=O)OC[C@H]1O[C@@H](On2cc(CNC(=O)c3ccc(S(N)(=O)=O)cc3)nn2)[C@H](OC(C)=O)[C@@H](OC(C)=O)[C@@H]1OC(C)=O
2 | 23 | COC(=O)[C@H]1O[C@@H](On2cc(CNC(=O)c3ccc(S(N)(=O)=O)cc3)nn2)[C@H](O)[C@@H](O)[C@@H]1O
